# Data from PMC12087695, “A Phenotyping Tool for Seven Cytochrome P450 Enzymes and Two Transporters: Application to Examine the Effects of Clopidogrel and Gemfibrozil” (Clinical Pharmacology and Therapeutics, 2025).
# Read-outs that look alike come from different tables or passages of the source.
# Experiments:
# [1] = Safety: adverse effects and blood glucose monitoring; assay type: in vivo, human
# Protocol: (§1) On study days, venous blood samples from all participants were drawn from forearm vein cannulas before the administration of the pretreatment drugs and 5 minutes before and 0.5, 1, 1.5, 2, 3, 4, 6, 8, 12, and 23 hours after the administration of the index drugs for determination of index drug and metabolite concentrations. Additional venous blood samples for biomarker analyses were drawn before the administration of the pretreatment drugs and 5 minutes before and 3 hours after the administration of the index drugs. Standardized breakfast was served 1 hour, lunch 3 hours, and snacks 7 and 9 hours after the administration of index drugs. Blood glucose levels were monitored with CareSens Dual point‐of‐care blood glucose meter (i‐SENS Inc., Seoul, South Korea) at each venous blood sampling time point up to 12 hours after the administration of index drugs.
# clinical = settings: human, in vivo; for AUC(0-t) / AUC(0-inf) / Cmax: geometric mean (geometric CV); for AUC(0-inf): AUC0-∞; for half-life: t1/2, geometric mean (geometric CV)
# Protocol: (§2) This open‐label cross‐over clinical trial included five study phases that each participant underwent in a randomized order (Table 1 ). There was at least 2‐week washout period between different study days.
# (§3) On study days, venous blood samples from all participants were drawn from forearm vein cannulas before the administration of the pretreatment drugs and 5 minutes before and 0.5, 1, 1.5, 2, 3, 4, 6, 8, 12, and 23 hours after the administration of the index drugs for determination of index drug and metabolite concentrations. […] Standardized breakfast was served 1 hour, lunch 3 hours, and snacks 7 and 9 hours after the administration of index drugs.
# (§4) Prior to the analysis, the analytes were extracted from the plasma samples with simple protein precipitation. Plasma samples (50 μL) were mixed with acetonitrile solution (200 μL) containing internal standards. The samples were centrifugated and an aliquot of the supernatant was mixed with an equal volume of water before LC–MS analyses.
# (§5) The flow rate was 0.3 mL/min, and the gradient program for the mobile phase B was from 20% to 90% over 7 minutes, wash at 90% 7–9.5 minutes, followed by balancing at 20% before next injection. […] The column and mobile phases were the same as above, and the gradient program for the mobile phase B was from 40% to 90% over 5 minutes, wash at 90% 5–7.3 minutes, followed by balancing at 40% before next injection. The quality control samples for each analyte at relevant concentrations were quantified with each batch of plasma samples.
# (§6) Individuals with poor metabolism or transport function phenotype were excluded from respective statistical comparisons.
# [2] = Plasma pharmacokinetics of cocktail index drugs and their metabolites, five-phase crossover trial; settings: phase I: repaglinide 0.05 mg alone;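 note: parameters derived from plasma drug levels quantified by LC–MS with internal standards after acetonitrile protein precipitation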
# Protocol: as §2, §3, §4, §5, §6
# OATP1B3 = biological target: T1, OATP1B3 (Homo sapiens, UniProt Q9NPD5); test: OATP1B3 endogenous biomarker GCDCA-3S in plasma; settings: for OATP1B3 inhibition in the trial: GCDCA-3S biomarker data
# T1 sequence (Q9NPD5 1-702): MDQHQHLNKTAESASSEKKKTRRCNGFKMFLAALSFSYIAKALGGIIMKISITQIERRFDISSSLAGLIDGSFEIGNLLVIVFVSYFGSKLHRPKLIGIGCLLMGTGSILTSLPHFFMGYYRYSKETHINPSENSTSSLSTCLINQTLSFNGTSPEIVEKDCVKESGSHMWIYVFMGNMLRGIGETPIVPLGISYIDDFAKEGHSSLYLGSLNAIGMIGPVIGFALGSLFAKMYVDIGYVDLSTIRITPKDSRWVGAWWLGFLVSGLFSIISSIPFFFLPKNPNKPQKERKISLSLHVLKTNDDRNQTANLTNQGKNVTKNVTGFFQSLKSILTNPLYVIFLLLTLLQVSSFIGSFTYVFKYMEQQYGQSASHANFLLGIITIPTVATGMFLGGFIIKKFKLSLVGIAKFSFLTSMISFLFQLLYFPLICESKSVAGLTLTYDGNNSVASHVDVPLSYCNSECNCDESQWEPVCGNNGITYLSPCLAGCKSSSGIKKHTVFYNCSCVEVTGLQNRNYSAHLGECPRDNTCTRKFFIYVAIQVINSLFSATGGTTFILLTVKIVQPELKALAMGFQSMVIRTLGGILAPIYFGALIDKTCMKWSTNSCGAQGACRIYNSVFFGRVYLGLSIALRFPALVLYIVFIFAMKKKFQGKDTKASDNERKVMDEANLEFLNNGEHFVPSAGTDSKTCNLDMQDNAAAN
# Protocol: (§7) On study days, venous blood samples from all participants were drawn from forearm vein cannulas before the administration of the pretreatment drugs and 5 minutes before and 0.5, 1, 1.5, 2, 3, 4, 6, 8, 12, and 23 hours after the administration of the index drugs for determination of index drug and metabolite concentrations. Additional venous blood samples for biomarker analyses were drawn before the administration of the pretreatment drugs and 5 minutes before and 3 hours after the administration of the index drugs.
# (§8) Plasma repaglinide, OATP1B1 biomarker GCDCA‐3G, OATP1B3 biomarker GCDCA‐3S, and CYP2D6 biomarker solanidine were analyzed using Sciex 5500 Qtrap and Sciex 6500 Qtrap LC–MS systems (AB Sciex, Toronto, ON, Canada) as previously described.[20], [21], [22] The limit of quantification for repaglinide was 0.01 ng/mL. The between‐day precisions (CV%) for quality controls (0.1 and 2.0 ng/mL) were below 10% and accuracies were within ±10%. For GCDCA‐3G and GCDCA‐3S, the limit of quantification was 0.5 ng/mL and the between‐day precisions and accuracies were below 5% and ± 10% at relevant concentrations (10 and 200 ng/mL).
# (§9) As for biomarkers, AUC0‐3h values in phases I–III and AUC0‐4h values in phases III–V for GCDCA‐3G and GCDCA‐3S and AUC0‐4h values in phases III and V for M430, M444, and solanidine were calculated with trapezoidal rule in Excel (Microsoft, Redmond, WA).
# (§10) Individuals with poor metabolism or transport function phenotype were excluded from respective statistical comparisons. Additionally, to keep comparisons balanced, subjects lacking pharmacokinetic variable data in any study phase were excluded from the respective analyses. Prior to statistical analyses with IBM SPSS Statistics Version 29.0 for Windows (IBM Corporation, Armonk, NY), all pharmacokinetic variable values were logarithmically transformed. Pharmacokinetic variables except T max were compared between different study phases by repeated‐measures analysis of variance with study phase as a within‐subjects factor. T max values were compared with Wilcoxon signed‐rank test. Differences with P < 0.05 after the Bonferroni correction were considered statistically significant. The data are presented as geometrical mean values or geometric mean ratios with geometric CV or 90% confidence intervals (CI) if not otherwise indicated.
# OATP1B1 = OATP1B1 endogenous biomarker GCDCA-3G in plasma; settings: for OATP1B1 inhibition in the trial: GCDCA-3G biomarker data
# Protocol: as §7, §8, §9, §10
# CYP1A2 = biological target: T2, CYP1A2 (Homo sapiens, UniProt P05177); test: CYP1A2 phenotyping, paraxanthine/caffeine metabolic ratios; assay type: in vivo; settings: index drug data, healthy volunteers
# T2 sequence (P05177 1-516): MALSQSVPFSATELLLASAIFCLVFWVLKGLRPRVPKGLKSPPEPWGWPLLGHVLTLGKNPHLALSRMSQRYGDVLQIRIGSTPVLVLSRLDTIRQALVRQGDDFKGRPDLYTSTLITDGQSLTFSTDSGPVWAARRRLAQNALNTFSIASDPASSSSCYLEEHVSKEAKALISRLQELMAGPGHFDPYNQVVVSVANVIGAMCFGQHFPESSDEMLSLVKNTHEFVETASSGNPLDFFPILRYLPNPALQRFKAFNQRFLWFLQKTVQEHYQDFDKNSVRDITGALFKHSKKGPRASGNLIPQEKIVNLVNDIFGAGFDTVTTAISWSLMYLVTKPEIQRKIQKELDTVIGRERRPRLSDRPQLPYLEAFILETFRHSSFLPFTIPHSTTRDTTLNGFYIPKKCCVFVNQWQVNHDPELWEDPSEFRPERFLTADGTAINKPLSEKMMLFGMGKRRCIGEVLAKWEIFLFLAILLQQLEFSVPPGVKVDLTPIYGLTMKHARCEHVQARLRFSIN
# Protocol: as §2
# (§11) On study days, venous blood samples from all participants were drawn from forearm vein cannulas before the administration of the pretreatment drugs and 5 minutes before and 0.5, 1, 1.5, 2, 3, 4, 6, 8, 12, and 23 hours after the administration of the index drugs for determination of index drug and metabolite concentrations. […] Blood glucose levels were monitored with CareSens Dual point‐of‐care blood glucose meter (i‐SENS Inc., Seoul, South Korea) at each venous blood sampling time point up to 12 hours after the administration of index drugs.
# (§12) The flow rate was 0.3 mL/min, and the gradient program for the mobile phase B was from 20% to 90% over 7 minutes, wash at 90% 7–9.5 minutes, followed by balancing at 20% before next injection. […] The quality control samples for each analyte at relevant concentrations were quantified with each batch of plasma samples.
# (§13) As for biomarkers, AUC0‐3h values in phases I–III and AUC0‐4h values in phases III–V for GCDCA‐3G and GCDCA‐3S and AUC0‐4h values in phases III and V for M430, M444, and solanidine were calculated with trapezoidal rule in Excel (Microsoft, Redmond, WA). […]
# CYP2C9 = settings: index drug data, healthy volunteers
# Protocol: as §2, §11, §12, §13
# CYP2D6 = settings: in vivo
# Protocol: as §2, §11, §12, §13
# CYP2C8 [3] = biological target: T3, CYP2C8 (Homo sapiens, UniProt P10632); settings: in vivo
# T3 sequence (P10632 1-490): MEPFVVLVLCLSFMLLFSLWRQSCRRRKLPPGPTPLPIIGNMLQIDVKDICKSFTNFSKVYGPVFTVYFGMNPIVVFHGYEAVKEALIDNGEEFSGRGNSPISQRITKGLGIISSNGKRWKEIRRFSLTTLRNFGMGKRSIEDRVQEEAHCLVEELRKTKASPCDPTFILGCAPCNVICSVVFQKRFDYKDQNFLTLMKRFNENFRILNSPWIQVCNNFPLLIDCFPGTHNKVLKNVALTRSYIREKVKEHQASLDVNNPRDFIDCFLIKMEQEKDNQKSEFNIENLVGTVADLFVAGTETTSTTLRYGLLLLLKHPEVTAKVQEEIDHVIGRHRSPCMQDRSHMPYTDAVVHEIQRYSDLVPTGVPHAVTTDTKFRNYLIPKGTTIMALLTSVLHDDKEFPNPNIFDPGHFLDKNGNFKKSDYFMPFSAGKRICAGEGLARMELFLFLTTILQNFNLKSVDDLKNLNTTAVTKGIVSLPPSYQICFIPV
# Protocol: as §2, §11
# (§14) The limit of quantification for repaglinide was 0.01 ng/mL. […] For GCDCA‐3G and GCDCA‐3S, the limit of quantification was 0.5 ng/mL and the between‐day precisions and accuracies were below 5% and ± 10% at relevant concentrations (10 and 200 ng/mL).
# (§15) As for biomarkers, AUC0‐3h values in phases I–III and AUC0‐4h values in phases III–V for GCDCA‐3G and GCDCA‐3S and AUC0‐4h values in phases III and V for M430, M444, and solanidine were calculated with trapezoidal rule in Excel (Microsoft, Redmond, WA). 0‐hour metabolic ratio and AUC0‐4h ratios were calculated for M430/solanidine and M444/solanidine. […]
# [4] = Plasma pharmacokinetics of pretreatment drugs clopidogrel, gemfibrozil and their metabolites; assay type: in vivo; settings: human, after clopidogrel 300 mg single oral dose (phase IV)
# Protocol: as §2, §1
# The quality control samples for each analyte at relevant concentrations were quantified with each batch of plasma samples.
# CYP2B6 [5] = settings: index drug data, healthy volunteers
# Protocol: as §2, §11, §12, §13
# CYP2C19 = CYP2C19 (Homo sapiens, UniProt P33261); settings: index drug data, healthy volunteers
# Protocol: as §2, §11, §12, §13
# CYP2B6 [6] = settings: 75 mg dose; ref US FDA; cited from earlier work
# CYP2C8 [7] = biological target: T3, CYP2C8; test: CYP2C8 phenotyping with index drug repaglinide; settings: repaglinide index drug data, healthy volunteers
# Protocol: as §2, §11, §14, §15
# [8] = 0.05 mg, phase I: repaglinide 0.05 mg alone
# [9] = phase IV: clopidogrel 300 mg pretreatment + full cocktail
# [10] = phase V: gemfibrozil 600 mg b.i.d. 3 days pretreatment + full cocktail
# [11] = N = 16, clopidogrel pretreatment
# [12] = N = 16, gemfibrozil pretreatment
# [13] = N = 16, phase III full cocktail (control)
# [14] = OATP1B1 normal/decreased function (N = 13), clopidogrel pretreatment
# [15] = OATP1B1 normal/decreased function (N = 13), gemfibrozil pretreatment
# [16] = OATP1B1 normal/decreased function (N = 13), phase III full cocktail (control)
# [17] = OATP1B1 poor function (N = 3), clopidogrel pretreatment
# [18] = OATP1B1 poor function (N = 3), gemfibrozil pretreatment
# [19] = OATP1B1 poor function (N = 3), phase III full cocktail (control)
# Chain of CYP2C19 (P33261 whole entry): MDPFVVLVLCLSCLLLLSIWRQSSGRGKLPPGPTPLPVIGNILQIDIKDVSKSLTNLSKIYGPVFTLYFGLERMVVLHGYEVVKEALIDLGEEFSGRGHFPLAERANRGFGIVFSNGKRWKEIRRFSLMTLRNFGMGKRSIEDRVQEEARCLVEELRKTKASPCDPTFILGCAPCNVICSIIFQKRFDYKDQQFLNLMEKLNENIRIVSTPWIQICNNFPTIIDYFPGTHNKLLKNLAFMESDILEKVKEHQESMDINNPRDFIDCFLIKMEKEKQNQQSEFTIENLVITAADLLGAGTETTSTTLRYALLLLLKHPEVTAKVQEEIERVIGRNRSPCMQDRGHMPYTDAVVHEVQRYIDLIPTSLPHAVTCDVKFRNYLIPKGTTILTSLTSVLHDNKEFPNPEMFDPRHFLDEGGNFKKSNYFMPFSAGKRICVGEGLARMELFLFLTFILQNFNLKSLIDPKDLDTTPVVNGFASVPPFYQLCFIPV
smiles,measurement,setting,value
"CCOc1cc(CC(=O)N[C@@H](CC(C)C)c2ccccc2N2CCCCC2)ccc1C(=O)O [Repaglinide, repaglinide]",Hypoglycemia,"[1]; 0.05 mg repaglinide, breakfast an hour later, also after gemfibrozil pretreatment",no hypoglycemia was observed
same,Safety / adverse effects,"[1]; all study phases, 16 healthy volunteers",safe
same,AUC(0-t),"clinical; 0.05 mg, AUC0-4h, phase I: repaglinide 0.05 mg alone",0.936 ng·h/mL
same,AUC(0-t),"clinical; 0.05 mg, AUC0-23h, phase I: repaglinide 0.05 mg alone",1.01 ng·h/mL
same,AUC(0-inf),clinical; [8],1.01 ng·h/mL
same,Cmax,clinical; [8],0.701 ng/mL
same,half-life,clinical; [8],1.07 h
same,AUC(0-t),"clinical; AUC0-4h, phase IV: clopidogrel 300 mg pretreatment + full cocktail",3.7 ng·h/mL
same,AUC(0-t),"clinical; AUC0-4h, phase V: gemfibrozil 600 mg b.i.d. 3 days pretreatment + full cocktail",4.93 ng·h/mL
same,AUC(0-t),"clinical; AUC0-23h, phase IV: clopidogrel 300 mg pretreatment + full cocktail",5.55 ng·h/mL
same,AUC(0-t),"clinical; AUC0-23h, phase V: gemfibrozil 600 mg b.i.d. 3 days pretreatment + full cocktail",9.21 ng·h/mL
same,AUC(0-inf),clinical; [9],5.65 ng·h/mL
same,AUC(0-inf),clinical; [10],9.64 ng·h/mL
same,Cmax,clinical; [9],1.69 ng/mL
same,Cmax,clinical; [10],2.08 ng/mL
same,Tmax,"clinical; Tmax, median (range), phase IV: clopidogrel 300 mg pretreatment + full cocktail",1 h
same,half-life,clinical; [9],2.78 h
same,half-life,clinical; [10],3.35 h
same,"Tmax, median (range)",[2],0.5 (0.5-1.0) h
"C[C@H](CCC(=O)NCC(=O)O)C1CCC2C3C(CC[C@@]21C)[C@@]1(C)CC[C@@H](OS(=O)(=O)O)C[C@H]1C[C@H]3O (stereo partly drawn) [GCDCA‐3S, glycochenodeoxycholate 3‐sulfate]","GCDCA-3S AUC0-4h, geometric mean (geometric CV)",OATP1B3; [11],146 (61.8%) ng × h/mL
same,"GCDCA-3S C0, geometric mean (geometric CV)",OATP1B3; [11],49.2 (69.3%) ng/mL
same,"GCDCA-3S AUC0-4h, geometric mean (geometric CV)",OATP1B3; [12],212 (46.9%) ng × h/mL
same,"GCDCA-3S C0, geometric mean (geometric CV)",OATP1B3; [12],65.5 (72.9%) ng/mL
same,"GCDCA-3S AUC0-3h, geometric mean (geometric CV)",OATP1B3; [13],141 (68.3%) ng×h/mL
same,"GCDCA-3S AUC0-4h, geometric mean (geometric CV)",OATP1B3; [13],190 (67.4%) ng × h/mL
same,"GCDCA-3S C0, geometric mean (geometric CV)",OATP1B3; [13],50.8 (85.3%) ng/mL
same,"GCDCA-3S AUC0-3h, geometric mean (geometric CV)","OATP1B3; N=16, phase I repaglinide only",119 (69.0%) ng×h/mL
same,"GCDCA-3S AUC0-3h, geometric mean (geometric CV)","OATP1B3; N=16, phase II Geneva cocktail only",106 (65.4%) ng×h/mL
"C[C@H](CCC(=O)NCC(=O)O)[C@H]1CC[C@H]2[C@@H]3[C@H](O)C[C@@H]4C[C@H](O[C@@H]5O[C@H](C(=O)O)[C@@H](O)[C@H](O)[C@H]5O)CC[C@]4(C)[C@H]3CC[C@]12C [GCDCA‐3G, glycochenodeoxycholate 3‐O‐glucuronide]","GCDCA-3G AUC0-4h, geometric mean (geometric CV)",OATP1B1; [14],77.5 (69.9%) ng × h/mL
same,"GCDCA-3G C0, geometric mean (geometric CV)",OATP1B1; [14],21.7 (81.7%) ng/mL
same,"GCDCA-3G AUC0-4h, geometric mean (geometric CV)",OATP1B1; [15],118 (65.4%) ng × h/mL
same,"GCDCA-3G C0, geometric mean (geometric CV)",OATP1B1; [15],35.7 (82.5%) ng/mL
same,"GCDCA-3G AUC0-3h, geometric mean (geometric CV)",OATP1B1; [16],66.3 (49.6%) ng×h/mL
same,"GCDCA-3G AUC0-4h, geometric mean (geometric CV)",OATP1B1; [16],88.6 (51.3%) ng × h/mL
same,"GCDCA-3G C0, geometric mean (geometric CV)",OATP1B1; [16],22.9 (60.0%) ng/mL
same,"GCDCA-3G AUC0-3h, geometric mean (geometric CV)","OATP1B1; OATP1B1 normal/decreased function (N=13), phase I repaglinide only",68.3 (61.0%) ng×h/mL
same,"GCDCA-3G AUC0-3h, geometric mean (geometric CV)","OATP1B1; OATP1B1 normal/decreased function (N=13), phase II Geneva cocktail only",63.6 (75.2%) ng×h/mL
same,"GCDCA-3G AUC0-4h, geometric mean (geometric CV)",OATP1B1; [17],791 (56.1%) ng × h/mL
same,"GCDCA-3G C0, geometric mean (geometric CV)",OATP1B1; [17],238 (57.2%) ng/mL
same,"GCDCA-3G AUC0-4h, geometric mean (geometric CV)",OATP1B1; [18],809 (75.4%) ng × h/mL
same,"GCDCA-3G C0, geometric mean (geometric CV)",OATP1B1; [18],215 (79.1%) ng/mL
same,"GCDCA-3G AUC0-4h, geometric mean (geometric CV)",OATP1B1; [19],755 (48.4%) ng × h/mL
same,"GCDCA-3G C0, geometric mean (geometric CV)",OATP1B1; [19],206 (73.8%) ng/mL
"Cc1ccc(C)c(OCCCC(C)(C)C(=O)O)c1 [Gemfibrozil, gemfibrozil]",CYP1A2 inhibition strength in the trial,CYP1A2,weak
same,CYP2C9 inhibition in the trial,CYP2C9,lack of any clinically meaningful
same,CYP2D6 inhibition in the trial,CYP2D6,lack of any clinically meaningful
same,CYP2C8 inhibition strength in the trial,CYP2C8 [3],strong
same,OATP1B1 inhibition in the trial,OATP1B1,slightly inhibits and weak
same,OATP1B3 inhibition in the trial,OATP1B3,does not affect
"COC(=O)[C@H](c1ccccc1Cl)N1CCc2sccc2C1 [Clopidogrel, clopidogrel]",Cmax,[4],3.75 ng/mL
same,AUC(0-t),"[4]; read-out: AUC0-24h, geometric mean (90% CI)",11.6 ng·h/mL
same,CYP2B6 inhibition strength in the trial,CYP2B6 [5],moderate
same,CYP2C19 inhibition strength in the trial,CYP2C19,weak
same,CYP2B6 inhibitor classification,CYP2B6 [6],weak
same,CYP2C8 inhibition strength in the trial,CYP2C8 [7],moderate
same,OATP1B1 inhibition in the trial,OATP1B1,did not affect
same,OATP1B3 inhibition in the trial,OATP1B3,did not affect
